Where “and” joins values, the source holds several entries; their conditions need not be identical. Identical values can stand only once. Each block holds one compound with its values, some of them ahead of it.
Columns and labels:
[1] = biological target: T1, UCHL1 (Homo sapiens, UniProt P09936); experiment: In-cell proteome-wide competitive ABPP (quantitative chemical proteomics), HEK293: UCHL1; conditions: for Log2 reporter intensity values: UCHL1: DMSO substract (FC); for Log2 reporter intensity values: UCHL1 / Log2 reporter intensity values: replicates A-C; for UCHL1 response in proteome-wide competitive ABPP: HEK293, compound 60 min, then 2 (20 nM) 10 min; for Log2 reporter intensity values: UCHL1, DMSO subtracted
T1 sequence (P09936 1-223): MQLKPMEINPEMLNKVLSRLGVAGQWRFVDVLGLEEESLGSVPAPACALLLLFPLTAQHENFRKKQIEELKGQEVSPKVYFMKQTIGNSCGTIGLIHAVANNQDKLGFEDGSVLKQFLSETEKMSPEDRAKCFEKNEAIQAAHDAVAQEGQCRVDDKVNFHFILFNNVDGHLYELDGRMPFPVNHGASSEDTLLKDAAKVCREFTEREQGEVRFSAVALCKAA

[2] = biological target: USP34 (Homo sapiens, UniProt Q70CQ2); experiment: Biochemical DUB selectivity profiling assay: USP34; conditions: Ub-Rho110 400 nM, buffer B; read-out: Biochemical IC50 range, USP34
Method: DUB Assay Substrate Substrate
Buffer Concentration (nM) […]
Sepharose® 4B resin (GE Healthcare).
10 kDa molecular weight cut-off (MWCO)).
Fractions containing protein
Protein concentration was […]
reaction volume of 21 μL. […]
compound (final concentration 5 nM).
IC50 values were determined
Biochemical DUB selectivity profiling assays […]
in 40 µL total reaction volume.

[3] = biological target: T2, USP21 (Homo sapiens, UniProt Q9UK80); experiment: biochemical
T2 sequence (Q9UK80 1-565): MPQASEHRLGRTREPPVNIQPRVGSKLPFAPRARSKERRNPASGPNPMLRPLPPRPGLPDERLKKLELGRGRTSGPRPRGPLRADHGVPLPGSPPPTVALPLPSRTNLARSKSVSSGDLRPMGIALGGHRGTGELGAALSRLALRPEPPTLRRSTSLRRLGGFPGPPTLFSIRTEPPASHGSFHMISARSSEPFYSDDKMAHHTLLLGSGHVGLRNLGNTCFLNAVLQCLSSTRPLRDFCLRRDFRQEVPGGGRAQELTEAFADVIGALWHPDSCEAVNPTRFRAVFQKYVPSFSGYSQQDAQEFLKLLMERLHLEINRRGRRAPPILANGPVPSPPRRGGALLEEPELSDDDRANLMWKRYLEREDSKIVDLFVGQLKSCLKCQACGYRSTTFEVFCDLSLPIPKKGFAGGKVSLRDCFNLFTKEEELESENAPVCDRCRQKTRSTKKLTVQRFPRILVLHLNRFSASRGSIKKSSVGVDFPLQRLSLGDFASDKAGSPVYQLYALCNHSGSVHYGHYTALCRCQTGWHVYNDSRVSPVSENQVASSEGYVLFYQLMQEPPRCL

[4] = biological target: T3, OTUB2 (Homo sapiens, UniProt Q96DC9); experiment: biochemical
T3 sequence (Q96DC9 1-234): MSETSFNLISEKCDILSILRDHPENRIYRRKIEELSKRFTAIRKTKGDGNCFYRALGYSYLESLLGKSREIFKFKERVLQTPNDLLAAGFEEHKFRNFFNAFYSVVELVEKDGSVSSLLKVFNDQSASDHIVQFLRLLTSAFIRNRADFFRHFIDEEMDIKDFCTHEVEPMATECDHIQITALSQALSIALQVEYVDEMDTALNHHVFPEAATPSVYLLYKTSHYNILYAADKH

[5] = biological target: USP10 (Homo sapiens, UniProt Q14694); experiment: biochemical
[6] = biological target: T4, UCHL3 (Homo sapiens, UniProt P15374); experiment: In-cell proteome-wide competitive ABPP, HEK293: UCHL3; conditions: for Log2 reporter intensity values: UCHL3: DMSO substract (FC); for Log2 reporter intensity values: UCHL3 / Log2 reporter intensity values: replicates A-C; for Log2 reporter intensity values: UCHL3, DMSO subtracted
T4 sequence (P15374 1-230): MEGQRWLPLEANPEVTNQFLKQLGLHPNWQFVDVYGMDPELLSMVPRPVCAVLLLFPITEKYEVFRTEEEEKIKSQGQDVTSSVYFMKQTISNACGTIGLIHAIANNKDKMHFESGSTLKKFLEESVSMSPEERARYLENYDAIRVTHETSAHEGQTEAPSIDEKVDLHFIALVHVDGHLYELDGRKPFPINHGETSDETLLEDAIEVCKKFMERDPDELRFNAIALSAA

[7] = biological target: T5, USP8 (Homo sapiens, UniProt P40818); experiment: biochemical
T5 sequence (P40818 1-1118): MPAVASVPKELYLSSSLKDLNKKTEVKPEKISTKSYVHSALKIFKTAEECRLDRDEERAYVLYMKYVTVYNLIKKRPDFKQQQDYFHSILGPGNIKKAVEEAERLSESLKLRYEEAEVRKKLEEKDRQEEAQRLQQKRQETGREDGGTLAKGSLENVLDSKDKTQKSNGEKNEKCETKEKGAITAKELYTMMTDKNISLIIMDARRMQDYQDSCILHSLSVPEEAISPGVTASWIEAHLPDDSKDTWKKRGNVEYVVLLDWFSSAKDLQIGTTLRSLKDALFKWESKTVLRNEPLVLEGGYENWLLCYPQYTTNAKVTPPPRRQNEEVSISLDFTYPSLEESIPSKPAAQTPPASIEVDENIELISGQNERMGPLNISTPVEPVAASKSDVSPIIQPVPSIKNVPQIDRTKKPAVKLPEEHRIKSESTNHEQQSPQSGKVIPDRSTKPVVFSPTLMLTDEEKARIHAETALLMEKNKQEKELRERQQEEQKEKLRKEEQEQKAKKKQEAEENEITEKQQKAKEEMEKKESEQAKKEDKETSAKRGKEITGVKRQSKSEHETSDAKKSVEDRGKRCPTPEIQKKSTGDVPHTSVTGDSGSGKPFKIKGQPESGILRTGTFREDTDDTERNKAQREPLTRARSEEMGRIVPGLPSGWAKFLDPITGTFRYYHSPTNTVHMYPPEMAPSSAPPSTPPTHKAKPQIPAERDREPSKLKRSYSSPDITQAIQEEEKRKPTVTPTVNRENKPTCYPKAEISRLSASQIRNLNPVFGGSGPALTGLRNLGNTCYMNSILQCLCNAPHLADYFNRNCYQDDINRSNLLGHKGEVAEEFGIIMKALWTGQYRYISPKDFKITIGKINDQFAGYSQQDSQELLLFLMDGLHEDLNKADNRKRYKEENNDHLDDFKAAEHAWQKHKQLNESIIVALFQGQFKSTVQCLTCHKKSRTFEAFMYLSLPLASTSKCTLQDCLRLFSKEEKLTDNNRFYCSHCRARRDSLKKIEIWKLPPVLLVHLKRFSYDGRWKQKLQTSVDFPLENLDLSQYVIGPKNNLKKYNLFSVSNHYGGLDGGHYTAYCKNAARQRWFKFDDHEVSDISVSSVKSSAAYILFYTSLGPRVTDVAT

[8] = 1 at 1 μM, competition with ABP 2
[9] = 1 at 4 μM, competition with ABP 2
[10] = 3 at 1 μM, competition with ABP 2
[11] = 3 at 4 μM, competition with ABP 2

USP34, sequence (Q70CQ2 whole entry): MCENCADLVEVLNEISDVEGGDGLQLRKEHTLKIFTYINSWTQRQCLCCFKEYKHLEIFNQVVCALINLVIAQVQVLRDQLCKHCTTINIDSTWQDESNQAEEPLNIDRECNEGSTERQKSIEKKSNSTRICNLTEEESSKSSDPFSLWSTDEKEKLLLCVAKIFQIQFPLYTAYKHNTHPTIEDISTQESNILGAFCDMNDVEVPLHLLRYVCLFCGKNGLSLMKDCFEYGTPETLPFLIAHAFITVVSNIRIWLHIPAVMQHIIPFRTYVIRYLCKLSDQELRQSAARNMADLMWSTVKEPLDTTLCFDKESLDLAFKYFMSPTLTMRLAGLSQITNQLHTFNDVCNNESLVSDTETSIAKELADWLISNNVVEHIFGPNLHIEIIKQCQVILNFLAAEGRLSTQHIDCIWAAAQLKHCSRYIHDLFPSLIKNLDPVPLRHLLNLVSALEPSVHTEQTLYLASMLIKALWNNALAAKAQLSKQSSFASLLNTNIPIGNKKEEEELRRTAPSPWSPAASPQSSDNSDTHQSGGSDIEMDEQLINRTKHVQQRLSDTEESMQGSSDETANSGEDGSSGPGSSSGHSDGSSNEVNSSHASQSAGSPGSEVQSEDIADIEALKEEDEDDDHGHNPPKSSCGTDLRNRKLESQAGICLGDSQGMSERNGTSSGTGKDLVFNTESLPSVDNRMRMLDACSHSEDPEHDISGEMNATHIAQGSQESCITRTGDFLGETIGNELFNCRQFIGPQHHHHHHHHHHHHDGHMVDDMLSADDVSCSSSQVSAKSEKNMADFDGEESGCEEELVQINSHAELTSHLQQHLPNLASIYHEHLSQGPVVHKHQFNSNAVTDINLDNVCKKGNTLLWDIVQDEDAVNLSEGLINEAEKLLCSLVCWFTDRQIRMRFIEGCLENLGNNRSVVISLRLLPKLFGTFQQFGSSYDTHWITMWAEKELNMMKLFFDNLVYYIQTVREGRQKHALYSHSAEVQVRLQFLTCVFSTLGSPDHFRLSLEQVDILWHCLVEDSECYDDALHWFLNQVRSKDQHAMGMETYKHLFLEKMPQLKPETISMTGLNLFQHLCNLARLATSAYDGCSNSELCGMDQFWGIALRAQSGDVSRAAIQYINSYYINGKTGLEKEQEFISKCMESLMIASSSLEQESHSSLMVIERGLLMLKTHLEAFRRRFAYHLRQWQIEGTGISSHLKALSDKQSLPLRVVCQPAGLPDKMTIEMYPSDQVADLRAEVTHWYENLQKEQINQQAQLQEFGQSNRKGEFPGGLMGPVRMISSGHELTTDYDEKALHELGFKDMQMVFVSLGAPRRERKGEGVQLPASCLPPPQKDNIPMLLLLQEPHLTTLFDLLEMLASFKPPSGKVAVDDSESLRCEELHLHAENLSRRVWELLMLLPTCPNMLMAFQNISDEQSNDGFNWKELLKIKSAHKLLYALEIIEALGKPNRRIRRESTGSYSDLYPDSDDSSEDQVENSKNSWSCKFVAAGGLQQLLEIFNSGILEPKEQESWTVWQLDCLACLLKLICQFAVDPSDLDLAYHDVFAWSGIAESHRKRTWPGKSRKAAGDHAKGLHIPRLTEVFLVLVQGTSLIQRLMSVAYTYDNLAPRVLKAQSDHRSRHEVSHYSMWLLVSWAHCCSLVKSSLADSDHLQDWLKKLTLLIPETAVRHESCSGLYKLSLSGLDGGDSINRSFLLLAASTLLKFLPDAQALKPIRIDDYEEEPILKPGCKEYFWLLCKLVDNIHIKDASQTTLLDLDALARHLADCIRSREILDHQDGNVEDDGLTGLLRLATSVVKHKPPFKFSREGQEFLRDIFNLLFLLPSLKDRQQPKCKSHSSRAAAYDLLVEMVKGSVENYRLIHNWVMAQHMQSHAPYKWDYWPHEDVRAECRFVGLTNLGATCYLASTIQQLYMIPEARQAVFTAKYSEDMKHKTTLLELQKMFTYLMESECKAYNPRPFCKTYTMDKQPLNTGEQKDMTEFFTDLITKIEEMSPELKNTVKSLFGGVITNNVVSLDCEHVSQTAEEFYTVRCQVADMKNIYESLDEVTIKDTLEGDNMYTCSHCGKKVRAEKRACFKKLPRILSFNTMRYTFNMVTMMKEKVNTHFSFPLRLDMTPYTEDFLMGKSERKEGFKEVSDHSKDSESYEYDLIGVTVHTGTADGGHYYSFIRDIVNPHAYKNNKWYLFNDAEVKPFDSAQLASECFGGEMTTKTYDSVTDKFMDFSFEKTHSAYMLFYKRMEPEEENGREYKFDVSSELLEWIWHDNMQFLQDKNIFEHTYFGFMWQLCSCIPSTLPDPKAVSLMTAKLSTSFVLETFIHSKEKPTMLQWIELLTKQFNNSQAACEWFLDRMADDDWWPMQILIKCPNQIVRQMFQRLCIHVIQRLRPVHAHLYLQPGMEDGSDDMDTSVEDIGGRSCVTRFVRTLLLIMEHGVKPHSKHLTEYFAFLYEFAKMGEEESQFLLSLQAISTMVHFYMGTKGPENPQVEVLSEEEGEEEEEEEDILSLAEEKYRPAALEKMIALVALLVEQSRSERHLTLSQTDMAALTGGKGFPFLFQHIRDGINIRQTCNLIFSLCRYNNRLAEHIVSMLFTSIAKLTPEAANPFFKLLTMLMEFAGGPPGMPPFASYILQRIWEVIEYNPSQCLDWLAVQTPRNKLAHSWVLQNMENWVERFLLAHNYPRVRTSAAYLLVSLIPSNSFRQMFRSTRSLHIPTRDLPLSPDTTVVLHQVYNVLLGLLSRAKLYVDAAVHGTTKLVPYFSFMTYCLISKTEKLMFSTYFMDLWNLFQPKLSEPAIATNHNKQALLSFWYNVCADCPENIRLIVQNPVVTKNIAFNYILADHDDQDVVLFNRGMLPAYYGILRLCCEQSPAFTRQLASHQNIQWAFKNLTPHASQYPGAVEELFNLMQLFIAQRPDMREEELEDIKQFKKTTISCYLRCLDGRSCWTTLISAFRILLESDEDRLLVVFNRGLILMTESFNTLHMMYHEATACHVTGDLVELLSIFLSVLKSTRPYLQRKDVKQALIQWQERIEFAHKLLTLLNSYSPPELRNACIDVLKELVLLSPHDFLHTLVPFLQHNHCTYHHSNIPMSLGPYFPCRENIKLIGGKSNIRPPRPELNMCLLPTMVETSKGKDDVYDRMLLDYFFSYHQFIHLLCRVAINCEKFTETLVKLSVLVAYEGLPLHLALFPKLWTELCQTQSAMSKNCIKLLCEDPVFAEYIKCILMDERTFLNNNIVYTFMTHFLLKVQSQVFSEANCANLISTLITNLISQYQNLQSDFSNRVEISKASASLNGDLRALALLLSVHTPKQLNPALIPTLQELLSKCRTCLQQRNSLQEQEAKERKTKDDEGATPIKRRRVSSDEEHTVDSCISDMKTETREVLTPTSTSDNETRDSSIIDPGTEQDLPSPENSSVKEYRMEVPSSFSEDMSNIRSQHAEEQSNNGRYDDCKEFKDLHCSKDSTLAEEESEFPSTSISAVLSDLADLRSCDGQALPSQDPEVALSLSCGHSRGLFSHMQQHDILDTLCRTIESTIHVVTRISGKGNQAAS
USP10, sequence (Q14694 whole entry): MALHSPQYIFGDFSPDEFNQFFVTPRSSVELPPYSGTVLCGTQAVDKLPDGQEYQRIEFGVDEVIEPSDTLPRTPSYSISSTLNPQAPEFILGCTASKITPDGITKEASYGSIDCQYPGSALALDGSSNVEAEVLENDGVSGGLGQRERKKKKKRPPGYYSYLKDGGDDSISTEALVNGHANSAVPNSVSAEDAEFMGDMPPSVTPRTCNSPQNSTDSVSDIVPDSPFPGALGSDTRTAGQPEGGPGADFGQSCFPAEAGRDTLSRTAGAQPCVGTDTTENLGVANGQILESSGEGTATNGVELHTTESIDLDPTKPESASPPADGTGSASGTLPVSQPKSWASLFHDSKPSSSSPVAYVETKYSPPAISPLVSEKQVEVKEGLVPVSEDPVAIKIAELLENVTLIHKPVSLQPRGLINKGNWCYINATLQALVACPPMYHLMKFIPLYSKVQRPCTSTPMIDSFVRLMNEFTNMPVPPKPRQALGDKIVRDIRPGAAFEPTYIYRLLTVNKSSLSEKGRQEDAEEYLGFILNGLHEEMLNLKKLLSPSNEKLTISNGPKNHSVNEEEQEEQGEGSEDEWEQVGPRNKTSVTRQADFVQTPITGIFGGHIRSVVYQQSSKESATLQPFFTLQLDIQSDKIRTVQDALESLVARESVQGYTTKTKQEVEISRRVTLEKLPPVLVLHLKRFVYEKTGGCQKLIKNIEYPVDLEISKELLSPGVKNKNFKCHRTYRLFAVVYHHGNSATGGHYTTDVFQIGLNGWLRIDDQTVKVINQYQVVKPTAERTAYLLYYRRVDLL

- Log2 reporter intensity values: UCHL1 ([1]; 20 nM ABP 2 alone): 6.229 and 5.741 and 6.184
- IC50 [2]: 1 to 10 µM
- Log2 reporter intensity values: UCHL3 ([6]; 20 nM ABP 2 alone): 2.007 and 1.656 and 1.566
Structure (SMILES): C#Cc1cnc2[nH]cc(-c3cccc4c3CCN4C(=O)[C@@H]3CCCN3C#N)c2c1 [Compound 2]
- Log2 reporter intensity values ([1]; 20 nM ABP 2): 2.639 and 2.521 and 2.629 and 5.2291 and 4.741 and 5.184
- Log2 reporter intensity values ([6]; 20 nM ABP 2): 1.005 and 0.7277 and 0.6472 and 0.9988 and 0.6478 and 0.5579

- Log2 reporter intensity values: UCHL1 [1, 10]: 5.152 and 5.416 and 5.469
- Log2 reporter intensity values: UCHL1 [1, 11]: 5.424 and 5.76 and 5.633
- UCHL1 response in proteome-wide competitive ABPP [1]: does not respond
- Log2 reporter intensity values ([1]; 3_1 μM): 4.152 and 4.416 and 4.468
- Log2 reporter intensity values ([1]; 3_4 μM): 4.423 and 4.76 and 4.632
- Log2 reporter intensity values ([1]; 3 at 1 μM): 2.365 and 2.437 and 2.451
- Log2 reporter intensity values ([1]; 3 at 4 μM): 2.439 and 2.526 and 2.494
- IC50 [2]: > 10 µM
- IC50 [3]: > 10 µM
- IC50 [4]: > 10 µM
- IC50 [5]: > 10 µM
- Log2 reporter intensity values: UCHL3 [6, 10]: 1.501 and 1.531 and 1.889
- Log2 reporter intensity values: UCHL3 [6, 11]: 1.509 and 1.358 and 1.681
- Log2 reporter intensity values ([6]; 3_1 μM): 0.4924 and 0.5226 and 0.8806
- Log2 reporter intensity values ([6]; 3_4 μM): 0.5004 and 0.3501 and 0.6732
- Log2 reporter intensity values ([6]; 3 at 1 μM): 0.5856 and 0.6143 and 0.9175
- Log2 reporter intensity values ([6]; 3 at 4 μM): 0.5932 and 0.4418 and 0.7497
- IC50 [7]: > 10 µM
Structure (SMILES): N#CN1CCC[C@@H]1C(=O)N1CCc2c(-c3c[nH]c4ncccc34)cccc21 [Compound 3]

The remaining lines, values behind:

Structure (SMILES): N#CN1CCC[C@H]1C(=O)N1CCc2c(-c3c[nH]c4ncccc34)cccc21 [Compound 1]
- Log2 reporter intensity values: UCHL1 [1, 8]: 1.266 and 1.307 and 1.157
- Log2 reporter intensity values: UCHL1 [1, 9]: 0.9345 and 0.8874 and 0.9379
- UCHL1 response in proteome-wide competitive ABPP [1]: responds strongly
- Log2 reporter intensity values ([1]; 1_1 μM): 0.2661 and 0.3067 and 0.157
- Log2 reporter intensity values ([1]; 1_4 μM): -0.06576 and -0.1128 and -0.06231
- Log2 reporter intensity values ([1]; 1 at 1 μM): 0.3407 and 0.3862 and 0.2107
- Log2 reporter intensity values ([1]; 1 at 4 μM): -0.09779 and -0.1723 and -0.09247
- IC50 [2]: 1 to 10 µM
- IC50 [3]: > 10 µM
- IC50 [4]: > 10 µM
- IC50 [5]: > 10 µM
- Log2 reporter intensity values: UCHL3 [6, 8]: 0.8904 and 1.311 and 0.2787
- Log2 reporter intensity values: UCHL3 [6, 9]: 0.7742 and 0.7243 and 0.9234
- UCHL3 response in proteome-wide competitive ABPP ([6]; HEK293, compound 60 min, then 2 (20 nM) 10 min): small response
- Log2 reporter intensity values ([6]; 1_1 μM): -0.1178 and 0.3024 and -0.7296
- Log2 reporter intensity values ([6]; 1_4 μM): -0.234 and -0.284 and -0.08483
- Log2 reporter intensity values ([6]; 1 at 1 μM): -0.1675 and 0.3902 and -1.8434
- Log2 reporter intensity values ([6]; 1 at 4 μM): -0.3692 and -0.4654 and -0.115
- IC50 [7]: > 10 µM

Structure (SMILES): CC(=O)O/N=C1\C(=O)N(Cc2cc(Cl)ccc2Cl)c2ccc(Cl)cc21 [LDN]
- Log2 reporter intensity values: UCHL3 ([6]; LDN at 5 μM, competition with ABP 2): 1.511 and 1.383 and 1.619
- Log2 reporter intensity values: UCHL3 ([6]; LDN at 25 μM, competition with ABP 2): 1.505 and 1.419 and 1.696
- Log2 reporter intensity values ([6]; LDN at 5 μM): 0.5958 and 0.4677 and 0.6949
- Log2 reporter intensity values ([6]; LDN at 25 μM): 0.5899 and 0.5052 and 0.7625
- Log2 reporter intensity values ([6]; LDN_5 μM): 0.5031 and 0.3746 and 0.6105
- Log2 reporter intensity values ([6]; LDN_25 μM): 0.4969 and 0.4111 and 0.6882

Structure (SMILES): CC(=O)O/N=C1\C(=O)N(Cc2cc(Cl)ccc2Cl)c2ccc(Cl)cc21 [LDN-57444, reference compound]
- IC50 [2]: > 10 µM
- IC50 [3]: > 10 µM
- IC50 [4]: > 10 µM
- IC50 [5]: > 10 µM
- IC50 [7]: > 10 µM

— paper PMC7366380, “Discovery of a Potent and Selective Covalent Inhibitor and Activity-Based Probe for the Deubiquitylating Enzyme UCHL1, with Antifibrotic Activity” (Journal of the American Chemical Society, 2020)
